Species: Rattus norvegicus
Assay: Open TG-GATES - Regimen: Daily Repeat
Assay type: toxicity, organism-based, Sprague-Dawley
Design: regimen Daily Repeat, gender Male, age 6 weeks
Conditions: in vivo, po, route gavage; for APTT / Bas / Eos / Fbg / Hb / Ht / Lym / MCH / MCHC / MCV / Mono / Neu / PT / Plat / RBC / Ret / WBC: tissue Blood; for KIDNEY_L / KIDNEY_R / KIDNEY_TOTAL: tissue Kidney; for LIVER: tissue Liver; for A/G / ALP / ALT / AST / BUN / CRE / Ca / Cl / DBIL / GLC / IP / K / LDH / Na / PL / RALB / TBIL / TC / TG / TP / gamma-GTP: tissue Plasma
[1] = 0 mg/kg, 72 h, dose level Control, time 3 day
[2] = 0 mg/kg, […], dose level Control, time 7 day
[3] = 0 mg/kg, […], dose level Control, time 14 day
[4] = 0 mg/kg, […], dose level Control, time 28 day
[5] = 100 mg/kg, 72 h, dose level Low, time 3 day
[6] = 100 mg/kg, […], dose level Low, time 7 day
[7] = 100 mg/kg, […], dose level Low, time 14 day
[8] = 100 mg/kg, […], dose level Low, time 28 day

COC1=CC(=O)C[C@@H](C)[C@]12Oc1c(Cl)c(OC)cc(OC)c1C2=O [GRISEOFULVIN]
TERMINAL_BW [1]: 226.2 g
APTT [1]: 20.3 s
Bas [1]: 0%
Eos [1]: 1%
Fbg [1]: 209.6 mg/dL
Hb [1]: 12.8 g/dL
Ht [1]: 38%
Lym [1]: 81.8%
MCH [1]: 21.4 pg
MCHC [1]: 33.6%
MCV [1]: 63.5 fL
Mono [1]: 2.4%
Neu [1]: 15%
PT [1]: 13.1 s
Plat [1]: 133.8 x10_4/uL
RBC [1]: 598.2 x10_4/ul
Ret [1]: 6.7%
WBC [1]: 92 x10_2/uL
KIDNEY_L [1]: 0.9 g
KIDNEY_R [1]: 0.9 g
KIDNEY_TOTAL [1]: 1.9 g
LIVER [1]: 10.4 g
A/G [1]: 1.6
ALP [1]: 917.8 IU/L
ALT [1]: 35 IU/L
AST [1]: 66.2 IU/L
BUN [1]: 14.6 mg/dL
CRE [1]: 0.4 mg/dL
Ca [1]: 10.6 mg/dL
Cl [1]: 104.4 meq/L
DBIL [1]: 0.1 mg/dL
GLC [1]: 210.8 mg/dL
IP [1]: 7.7 mg/dL
K [1]: 4 meq/L
LDH [1]: 154 IU/L
Na [1]: 141 meq/L
PL [1]: 130.6 mg/dL
RALB [1]: 3.3 g/dL
TBIL [1]: 0.2 mg/dL
TC [1]: 69 mg/dL
TG [1]: 79 mg/dL
TP [1]: 5.3 g/dL
gamma-GTP [1]: 1.2 IU/L
TERMINAL_BW [2]: 261.4 g
TERMINAL_BW [3]: 310.7 g
TERMINAL_BW [4]: 391 g
APTT [2]: 18.8 s
Bas [2]: 0%
Eos [2]: 0.8%
Fbg [2]: 236 mg/dL
Hb [2]: 14.1 g/dL
Ht [2]: 42%
Lym [2]: 78%
MCH [2]: 21.7 pg
MCHC [2]: 33.6%
MCV [2]: 64.8 fL
Mono [2]: 3%
Neu [2]: 17.4%
PT [2]: 12.3 s
Plat [2]: 122.6 x10_4/uL
RBC [2]: 647.4 x10_4/ul
Ret [2]: 5.2%
WBC [2]: 117.8 x10_2/uL
APTT [3]: 19.7 s
Bas [3]: 0%
Eos [3]: 1%
Fbg [3]: 226.2 mg/dL
Hb [3]: 14.1 g/dL
Ht [3]: 42.2%
Lym [3]: 81.2%
MCH [3]: 20.8 pg
MCHC [3]: 33.4%
MCV [3]: 62.2 fL
Mono [3]: 3%
Neu [3]: 14.4%
PT [3]: 12.4 s
Plat [3]: 117 x10_4/uL
RBC [3]: 678.6 x10_4/ul
Ret [3]: 3%
WBC [3]: 116.8 x10_2/uL
APTT [4]: 20.6 s
Bas [4]: 0%
Eos [4]: 0.8%
Fbg [4]: 220 mg/dL
Hb [4]: 15.2 g/dL
Ht [4]: 44.8%
Lym [4]: 82.4%
MCH [4]: 19.7 pg
MCHC [4]: 34%
MCV [4]: 58 fL
Mono [4]: 2%
Neu [4]: 14%
PT [4]: 12.3 s
Plat [4]: 115.6 x10_4/uL
RBC [4]: 774.2 x10_4/ul
Ret [4]: 2.7%
WBC [4]: 130.8 x10_2/uL
KIDNEY_L [2]: 1.1 g
KIDNEY_R [2]: 1.2 g
KIDNEY_TOTAL [2]: 2.3 g
KIDNEY_L [3]: 1.2 g
KIDNEY_R [3]: 1.2 g
KIDNEY_TOTAL [3]: 2.4 g
KIDNEY_L [4]: 1.4 g
KIDNEY_R [4]: 1.4 g
KIDNEY_TOTAL [4]: 2.8 g
LIVER [2]: 12.6 g
LIVER [3]: 13.6 g
LIVER [4]: 16.1 g
A/G [2]: 1.6
ALP [2]: 944.2 IU/L
ALT [2]: 41.2 IU/L
AST [2]: 81 IU/L
BUN [2]: 14.6 mg/dL
CRE [2]: 0.4 mg/dL
Ca [2]: 10.8 mg/dL
Cl [2]: 103.4 meq/L
DBIL [2]: 0.1 mg/dL
GLC [2]: 206.8 mg/dL
IP [2]: 7.4 mg/dL
K [2]: 3.9 meq/L
LDH [2]: 155.4 IU/L
Na [2]: 142.2 meq/L
PL [2]: 146.6 mg/dL
RALB [2]: 3.5 g/dL
TBIL [2]: 0.2 mg/dL
TC [2]: 75.8 mg/dL
TG [2]: 112.2 mg/dL
TP [2]: 5.8 g/dL
gamma-GTP [2]: 1.2 IU/L
A/G [3]: 1.5
ALP [3]: 820.2 IU/L
ALT [3]: 32.8 IU/L
AST [3]: 55.8 IU/L
BUN [3]: 15 mg/dL
CRE [3]: 0.5 mg/dL
Ca [3]: 10.6 mg/dL
Cl [3]: 102.4 meq/L
DBIL [3]: 0.1 mg/dL
GLC [3]: 236 mg/dL
IP [3]: 7.3 mg/dL
K [3]: 4.2 meq/L
LDH [3]: 130.6 IU/L
Na [3]: 139.8 meq/L
PL [3]: 145.8 mg/dL
RALB [3]: 3.5 g/dL
TBIL [3]: 0.2 mg/dL
TC [3]: 73.6 mg/dL
TG [3]: 107.2 mg/dL
TP [3]: 5.8 g/dL
gamma-GTP [3]: 0.8 IU/L
A/G [4]: 1.5
ALP [4]: 889.4 IU/L
ALT [4]: 36.4 IU/L
AST [4]: 56.8 IU/L
BUN [4]: 15.2 mg/dL
CRE [4]: 0.5 mg/dL
Ca [4]: 10.5 mg/dL
Cl [4]: 102.8 meq/L
DBIL [4]: 0.078 mg/dL
GLC [4]: 240.2 mg/dL
IP [4]: 7.2 mg/dL
K [4]: 3.6 meq/L
LDH [4]: 155.8 IU/L
Na [4]: 141.2 meq/L
PL [4]: 132.8 mg/dL
RALB [4]: 3.5 g/dL
TBIL [4]: 0.2 mg/dL
TC [4]: 72.6 mg/dL
TG [4]: 65.4 mg/dL
TP [4]: 6 g/dL
gamma-GTP [4]: 1.2 IU/L
TERMINAL_BW [5]: 226.6 g
APTT [5]: 19.6 s
Bas [5]: 0%
Eos [5]: 1%
Fbg [5]: 220 mg/dL
Hb [5]: 13.2 g/dL
Ht [5]: 39.1%
Lym [5]: 79.6%
MCH [5]: 22.1 pg
MCHC [5]: 33.8%
MCV [5]: 65.4 fL
Mono [5]: 2.4%
Neu [5]: 16.4%
PT [5]: 12.6 s
Plat [5]: 116.4 x10_4/uL
RBC [5]: 599.4 x10_4/ul
Ret [5]: 7.5%
WBC [5]: 97.1 x10_2/uL
KIDNEY_L [5]: 1 g
KIDNEY_R [5]: 1 g
KIDNEY_TOTAL [5]: 2 g
LIVER [5]: 11.2 g
A/G [5]: 1.6
ALP [5]: 947.8 IU/L
ALT [5]: 35.8 IU/L
AST [5]: 63 IU/L
BUN [5]: 14.6 mg/dL
CRE [5]: 0.4 mg/dL
Ca [5]: 10.8 mg/dL
Cl [5]: 103.8 meq/L
DBIL [5]: 0.086 mg/dL
GLC [5]: 213.6 mg/dL
IP [5]: 7.9 mg/dL
K [5]: 3.9 meq/L
LDH [5]: 158.2 IU/L
Na [5]: 140.8 meq/L
PL [5]: 146 mg/dL
RALB [5]: 3.4 g/dL
TBIL [5]: 0.1 mg/dL
TC [5]: 80.6 mg/dL
TG [5]: 62.8 mg/dL
TP [5]: 5.5 g/dL
gamma-GTP [5]: 1.2 IU/L
TERMINAL_BW [6]: 262.3 g
TERMINAL_BW [7]: 308.3 g
TERMINAL_BW [8]: 393.4 g
APTT [6]: 19.8 s
Bas [6]: 0%
Eos [6]: 1%
Fbg [6]: 229.4 mg/dL
Hb [6]: 13.6 g/dL
Ht [6]: 40.4%
Lym [6]: 80.4%
MCH [6]: 21.3 pg
MCHC [6]: 33.8%
MCV [6]: 63 fL
Mono [6]: 2.2%
Neu [6]: 16%
PT [6]: 12.2 s
Plat [6]: 141.9 x10_4/uL
RBC [6]: 641.4 x10_4/ul
Ret [6]: 5.7%
WBC [6]: 131.1 x10_2/uL
APTT [7]: 20.1 s
Bas [7]: 0%
Eos [7]: 1%
Fbg [7]: 225.6 mg/dL
Hb [7]: 14.2 g/dL
Ht [7]: 42.2%
Lym [7]: 78%
MCH [7]: 20.4 pg
MCHC [7]: 33.7%
MCV [7]: 60.6 fL
Mono [7]: 3.2%
Neu [7]: 17.2%
PT [7]: 12.3 s
Plat [7]: 129.7 x10_4/uL
RBC [7]: 696.2 x10_4/ul
Ret [7]: 2.8%
WBC [7]: 131.1 x10_2/uL
APTT [8]: 21.2 s
Bas [8]: 0%
Eos [8]: 1%
Fbg [8]: 219.6 mg/dL
Hb [8]: 15 g/dL
Ht [8]: 44.1%
Lym [8]: 81.8%
MCH [8]: 19.5 pg
MCHC [8]: 34%
MCV [8]: 57.2 fL
Mono [8]: 2.2%
Neu [8]: 14.8%
PT [8]: 12.5 s
Plat [8]: 121.1 x10_4/uL
RBC [8]: 772 x10_4/ul
Ret [8]: 2.7%
WBC [8]: 138.9 x10_2/uL
KIDNEY_L [6]: 1.1 g
KIDNEY_R [6]: 1.1 g
KIDNEY_TOTAL [6]: 2.3 g
KIDNEY_L [7]: 1.2 g
KIDNEY_R [7]: 1.2 g
KIDNEY_TOTAL [7]: 2.4 g
KIDNEY_L [8]: 1.4 g
KIDNEY_R [8]: 1.4 g
KIDNEY_TOTAL [8]: 2.9 g
LIVER [6]: 12.7 g
LIVER [7]: 13.7 g
LIVER [8]: 16.7 g
A/G [6]: 1.5
ALP [6]: 865.8 IU/L
ALT [6]: 36.2 IU/L
AST [6]: 62.2 IU/L
BUN [6]: 15.4 mg/dL
CRE [6]: 0.4 mg/dL
Ca [6]: 10.7 mg/dL
Cl [6]: 103.8 meq/L
DBIL [6]: 0.08 mg/dL
GLC [6]: 206.2 mg/dL
IP [6]: 7.1 mg/dL
K [6]: 3.8 meq/L
LDH [6]: 162.6 IU/L
Na [6]: 142 meq/L
PL [6]: 135.2 mg/dL
RALB [6]: 3.4 g/dL
TBIL [6]: 0.1 mg/dL
TC [6]: 75.4 mg/dL
TG [6]: 75 mg/dL
TP [6]: 5.7 g/dL
gamma-GTP [6]: 1 IU/L
A/G [7]: 1.5
ALP [7]: 701.8 IU/L
ALT [7]: 35.2 IU/L
AST [7]: 57.4 IU/L
BUN [7]: 15.2 mg/dL
CRE [7]: 0.5 mg/dL
Ca [7]: 10.6 mg/dL
Cl [7]: 103.2 meq/L
DBIL [7]: 0.1 mg/dL
GLC [7]: 215.2 mg/dL
IP [7]: 7.4 mg/dL
K [7]: 4.1 meq/L
LDH [7]: 171.8 IU/L
Na [7]: 140.6 meq/L
PL [7]: 138.8 mg/dL
RALB [7]: 3.5 g/dL
TBIL [7]: 0.2 mg/dL
TC [7]: 72.6 mg/dL
TG [7]: 92.4 mg/dL
TP [7]: 5.8 g/dL
gamma-GTP [7]: 1 IU/L
A/G [8]: 1.3
ALP [8]: 684.6 IU/L
ALT [8]: 31 IU/L
AST [8]: 55.8 IU/L
BUN [8]: 16 mg/dL
CRE [8]: 0.5 mg/dL
Ca [8]: 10.3 mg/dL
Cl [8]: 104.2 meq/L
DBIL [8]: 0.086 mg/dL
GLC [8]: 235.8 mg/dL
IP [8]: 6.4 mg/dL
K [8]: 3.5 meq/L
LDH [8]: 162.2 IU/L
Na [8]: 141.4 meq/L
PL [8]: 120.4 mg/dL
RALB [8]: 3.4 g/dL
TBIL [8]: 0.1 mg/dL
TC [8]: 66.2 mg/dL
TG [8]: 82 mg/dL
TP [8]: 6 g/dL
gamma-GTP [8]: 0.8 IU/L
